The values below come from patent US20240299393A1, “SMALL MOLECULE DISRUPTORS OF PROTEIN INTERACTIONS IN HISTONE DEACETYLASE COMPLEXES” (Dana-Farber Cancer Institute, Inc., priority 2021, published 2024).

In assay [1] the test system is Rpd3-sensitive acid phosphatase activity. The assay can be described thus: Yeast acid phosphatase plate assay. It counts as cell-based, S. cerevisiae. The settings on record: phosphate-rich (high Pi) medium. On the procedure:
The acid phosphatase plate assay was implemented as previously described [To et al 1973, Loewith et al 2001], with minor modifications. Cells were grown on high Pi medium (see above) for 2 days, at 30° C. A staining solution containing 2 mg/mL of 1-naphtyl phosphate (Sigma, N5602) and 4 mg/mL fast blue B salt (Sigma, D9805) was then prepared in 50 mM sodium acetate buffer pH 4.0±0.1, and maintained at 50° C. for ˜30 min before being filtered. Meanwhile, a solution of 10 mg/mL (1% weight/volume) ultra pure low melting point (LMP) agarose (Invitrogen, 15517-022) was prepared in 50 mM sodium acetate buffer pH 4.0±0.1, by microwaving the suspension until complete dissolution of the powder. The volume of the agarose solution was checked and readjusted with 50 mM sodium acetate buffer pH 4.0±0.1. The agarose solution was then mixed with the filtered staining solution by vortexing briefly, and the resulting suspension was kept at 50° C. for ˜15 min. The solid agar plate on which cells grew for 2 days were then gently overlaid with the agarose-containing staining solution, allowing its gelification on top of the cells. A red coloring started to appear ˜2 min after covering cells with the solution.

Assay [2] has as its target T1, Sin3 occupancy (Saccharomyces cerevisiae, UniProt P22579).
T1 construct: expressed in transfected cells; host or cells: S. cerevisiae JOY116 (sin3Δ) transformed with YEplac181-Sin3-(HA)3
The assay can be described thus: ChIP-qPCR and ChIP-seq of Sin3-(HA)3 in yeast. It counts as cell-based, S. cerevisiae. The settings on record: for Sin3 occupancy at URS-URA3 and INO1 (ChIP-qPCR) / number of genes with decreased Sin3 occupancy (ChIP-seq): 400 μM; for Sin3 occupancy at URS-URA3 and INO1 (ChIP-qPCR): 2 h; for number of genes with decreased Sin3 occupancy (ChIP-seq) / number of genes with reduced Sin3 occupancy (ChIP-seq): of 545 Sin3-occupied genes; for number of genes with decreased Sin3 occupancy (ChIP-seq): FIG. 5D; for number of genes with reduced Sin3 occupancy (ChIP-seq): FIG. 5K. On the procedure:
ChIP procedures in yeast were adapted from previously established protocols, with minor modifications [Sertil et al 2007, Jezek et al 2017, Barski et al 2007]. Briefly, yeast S. cerevisiae JOY116 (sin3Δ) cells transformed with the YEplac181-Sin3-(HA)3 plasmid were cultured in liquid SC-L, until OD600 nm reached ˜0.7. […] (200 rpm). After 2 h of incubation, cells were treated with 1% formaldehyde for 20 min at 4° C. for cross-linking. Then, 125 mM glycine was applied for 5 min at room temperature to quench cross-linking. Yeast cells were centrifuged (10 min at 1,000 g), and the resulting pellets were washed twice with 50 mL ice-cold phosphate-buffered saline (PBS). Yeast pellets were resuspended in 500 μL of ChIP lysis buffer (50 mM HEPES-KOH pH 7.5, 140 mM NaCl, 1 mM EDTA, 1% Triton X-100, 0.1% sodium deoxycholate, 0.1% SDS, and yeast protease inhibitors). After that, 500 μL of the yeast suspensions in lysis buffer were mixed with 500 μL of zirconia beads in a screw-top microcentrifuge tube. For cell lysis, the tubes were vortexed at maximum speed for 15 min at 4° C. Cell lysates were collected by punching a hole on the bottom of the screw-cap tube, with a sterile needle, and centrifuging the lysates into new Eppendorf tubes. Then, 300 μL of lysates were added into 1.5 mL Bioruptor Pico microtubes with caps (Diagenode, cat #C30010016), and subsequent sonication was conducted with a Bioruptor Pico sonication device, in the following conditions: 30 s/3 cycles on, and 30 s/3 cycles off, at 4° C. The sonicated lysates were cleared by 30 min centrifugation at maximum speed at 4° C. The resulting cleared lysates, with sheared chromatin, were saved, snap freezed, and stored at −80° C. until use. Next, 10 μL cleared lysates were reverse-cross linked overnight, at 65° C., in the presence of proteinase K. Phenol-chloroform extractions and EtOH precipitations were then applied to purify the sheared DNA. DNA agarose gel running and DNA concentration measurements with a NanoDrop spectrophotometer were finally conducted to assess the size and yield of the sheared DNA, respectively.
For the pull-downs, 25 μg of sheared chromatin from each sample were diluted (1:10) in ice-cold dilution buffer (1% Triton X-100, 2 mM EDTA, 20 mM Tris-HCl pH 8, 150 mM NaCl, and yeast protease inhibitors), and mixed with 10 μg ChIP-grade anti-HA (Abcam, cat #ab9110), or isotype control anti-IgG (Abcam, cat #ab171870) antibodies. Then, 50 μL of pre-washed Dynabeads Protein G for Immunoprecipitation (ThermoFisher, cat #10003D) were added to each individual sample. Chromatin immunoprecipitation was performed by incubating samples at 4° C. overnight, under gentle shaking (300 rpm). The day after, the Dynabeads were washed three times with 1 mL ice-cold wash buffer (0.1% SDS, 1% Triton X-100, 2 mM EDTA, 20 mM Tris-HCl pH 8, 150 mM NaCl), and then once with 1 mL ice-cold final wash buffer (0.1% SDS, 1% Triton X-100, 2 mM EDTA pH 8, 20 mM Tris-HCl pH 8, 500 mM NaCl), using a magnetic rack. DNA was eluted with 120 μL elution buffer (1% SDS, 100 mM NaHCO3), by incubating samples at 30° C. for 15 min. For input, 10 μL of sheared cell lysates were added to 110 μL of elution buffer. Then, 4 μL proteinase K were added to the eluted DNA or inputs, and reverse-cross linking was achieved by incubating samples overnight at 65° C. After overnight incubation, phenol-chloroform extractions and EtOH precipitations were conducted to purify ChIP-DNA. The ChIP-DNA was eluted in a total volume of 200 μL ddH2O, and then used for ChIP-qPCR or ChIP-Seq. Briefly, for ChIP-qPCR, 4 μL of eluted ChIP-DNA were mixed with 5 μL of PowerUp SYBR Green master mix (Applied Biosystems, cat #A25743), and 1 μL of the primer mix (forward+reverse; 3 μM final concentration), for a total volume of 10 μL. Two technical replicates were generated for each DNA sample from three ChIP replicates. ChIP-DNA samples were then transferred into the 384-well skirted PCR plate (Applied Biosystems, cat #4343370). […]

Entries after “also recorded” stand apart in the source; their conditions may differ.

T1 sequence (P22579 whole entry): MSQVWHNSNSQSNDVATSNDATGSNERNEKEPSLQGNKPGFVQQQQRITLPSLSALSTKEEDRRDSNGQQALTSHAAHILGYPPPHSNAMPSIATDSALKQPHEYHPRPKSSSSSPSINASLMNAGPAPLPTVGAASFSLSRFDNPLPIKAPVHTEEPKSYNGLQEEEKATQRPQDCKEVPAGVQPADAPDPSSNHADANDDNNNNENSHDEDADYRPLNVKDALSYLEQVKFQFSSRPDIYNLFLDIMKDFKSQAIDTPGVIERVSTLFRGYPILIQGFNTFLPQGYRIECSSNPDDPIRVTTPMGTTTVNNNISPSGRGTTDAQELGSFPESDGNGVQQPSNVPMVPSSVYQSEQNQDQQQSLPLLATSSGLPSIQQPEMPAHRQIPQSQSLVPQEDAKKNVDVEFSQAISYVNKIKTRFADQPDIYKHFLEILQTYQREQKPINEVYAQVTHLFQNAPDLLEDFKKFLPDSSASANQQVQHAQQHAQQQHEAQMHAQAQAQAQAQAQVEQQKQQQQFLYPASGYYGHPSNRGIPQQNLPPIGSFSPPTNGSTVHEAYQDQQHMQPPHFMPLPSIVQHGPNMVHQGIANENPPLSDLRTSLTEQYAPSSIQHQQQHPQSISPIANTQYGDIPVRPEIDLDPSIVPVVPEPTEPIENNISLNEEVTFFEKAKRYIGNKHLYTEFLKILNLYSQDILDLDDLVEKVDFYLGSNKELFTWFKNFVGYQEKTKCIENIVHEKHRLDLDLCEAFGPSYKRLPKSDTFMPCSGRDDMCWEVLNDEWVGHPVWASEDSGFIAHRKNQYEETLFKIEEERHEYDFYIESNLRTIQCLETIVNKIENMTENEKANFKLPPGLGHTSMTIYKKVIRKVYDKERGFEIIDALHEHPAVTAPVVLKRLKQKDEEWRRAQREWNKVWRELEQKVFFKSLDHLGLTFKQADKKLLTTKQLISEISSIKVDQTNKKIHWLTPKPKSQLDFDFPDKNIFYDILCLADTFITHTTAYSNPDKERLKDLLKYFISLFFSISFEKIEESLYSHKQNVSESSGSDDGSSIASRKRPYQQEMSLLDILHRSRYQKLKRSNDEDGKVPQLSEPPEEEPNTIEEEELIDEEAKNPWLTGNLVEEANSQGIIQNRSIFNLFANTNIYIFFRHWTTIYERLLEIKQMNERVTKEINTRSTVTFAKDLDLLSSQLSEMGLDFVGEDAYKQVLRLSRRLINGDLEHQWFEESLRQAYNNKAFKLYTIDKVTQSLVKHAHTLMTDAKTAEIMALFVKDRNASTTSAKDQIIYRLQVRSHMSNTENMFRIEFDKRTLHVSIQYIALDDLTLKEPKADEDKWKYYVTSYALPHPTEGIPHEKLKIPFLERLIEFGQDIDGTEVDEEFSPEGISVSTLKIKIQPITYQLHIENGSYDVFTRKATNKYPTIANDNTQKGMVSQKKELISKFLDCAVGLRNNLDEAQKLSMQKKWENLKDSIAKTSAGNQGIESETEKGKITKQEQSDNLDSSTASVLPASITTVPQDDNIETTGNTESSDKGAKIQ

Turning to `CC(NC(=O)c1c(O)n2ccccc2nc1=O)c1ccccc1` (racemic) [E6], the “Rpd3-sensitive acid phosphatase activity” value in assay [1] is given as “opposite behavior”. Moreover, in assay [2], the “Sin3 occupancy at URS-URA3 and INO1 (ChIP-qPCR)” value is given as “significantly decreased; also recorded: decreased occupancy”; the “number of genes with decreased Sin3 occupancy (ChIP-seq)” value was 360 genes; the “number of genes with reduced Sin3 occupancy (ChIP-seq)” value is on record as 450 genes. In addition, in assay [2] (not at SPO3 or TRK2), the “Sin3 occupancy at INO1, IME2 and CAR1 (ChIP-Seq traces)” value is on record as “reduced”.

With `CC(/C=C/C(=O)NO)=C\[C@@H](C)C(=O)c1ccc(N(C)C)cc1` [TSA, trichostatin A], the “Rpd3-sensitive acid phosphatase activity” value in assay [1] is recorded as “induced”. Further, in assay [2], the “Sin3 occupancy at URS-URA3 and INO1 (ChIP-qPCR)” value is listed as “appeared to prevent recruitment of Sin3; also recorded: decreased occupancy”; the “number of genes with decreased Sin3 occupancy (ChIP-seq)” value turned out to be 142 genes; the “number of genes with reduced Sin3 occupancy (ChIP-seq)” value came to 295 genes.
